# From patent publication US8936809B2, “Method for treating prostate diseases based on local delivery of active substances” (Lidds AB, priority 2005, dated 2015)
# Several values for one entry are separate records, joined by “and”; a condition that tells them apart may be missing. Equal values may be shown once.
# Legend:
# [1] = Plasma pharmacokinetics and tissue level after local administration of ceramic-based controlled release composition into dog prostate (Example 1); assay type: in vivo
# Description: One week later, the same animals were given 2-hydroxy-flutamide locally by a controlled release pharmaceutical composition in the prostate tissue. The 2-hydroxy- flutamide doses were 0 mg (H1), 30 mg (H3), 60 mg (H2) and 120 mg (H4), and each dog was given one implant only. Where H1 was a control given the composition without 2-hydroxy-flutamide. All doses of 2-hydroxy-flutamide were given after an overnight fast. Dog 1 (H1) and dog 3 (H3) were given an enema preoperatively. After the local prostate application of the pharmaceutical composition through rectum, an antibiotic (Quinolon) was administered in normal doses.
# The controlled release pharmaceutical composition was composed of a calcium sulphate ceramic and 2-hydroxy-flutamide (Catalogue No. 161.01, from Micromol). To prepare the implant, a calcium sulfate hemi-hydrate (Calcium Sulfate-0.5-hydrate, Product No. 12090, from Riedel-de Haen) is mixed as a fine-grained powder with water and the active agent to form an injectable paste. The paste solidifies in-vivo in about 5 minutes to a solid implant. The ceramic powder to water ratio is 1:2 and the dose of active agent (30, 60 or 120 mg) is mixed with a total 0.8 ml of paste.
# The controlled release pharmaceutical composition was inserted locally into the prostate tissue through needles by ultrasound guidance. The animals were under general anesthesia during the insertion procedure. The needle (15 cm long with an outer diameter of 0.9 mm) was inserted into the prepared rectum (an enema was given preoperatively) and was inserted through the rectal and abdominal wall and positioned in the prostate tissue by ultrasound guidance. The pharmaceutical composition was given as multiple thin strings of approximately 12 mm length and with a diameter of 1-2 mm.
# After administration of the controlled release pharmaceutical composition in the prostate tissue, blood samples were taken during 3 weeks. Samples of 1.0 ml were taken from the Cephalic vein at day 0, after 6 hours and then in the morning at day 1, 2, 3, 4, 5, 6, 9, 12, 14, 16, 19 and 20 following the administration of the implant. The blood samples were immediately centrifuged at 3000 rpm and the plasma samples were frozen at −20° C. until analysis.
# After day 20, each dog was terminated with an intravenous dose of a mixture of pentobarbital and potassium. The following organs were surgical removed and frozen: prostate, testis, liver and kidney for the assessment of effect and safety. These organs were carefully examined as a consequence of the local tissue exposure of 2-hydroxy-flutamide and the ceramic-based implant.
# Quantification of 2-hydroxy-flutamide in plasma and tissue samples was done by HPLC-MS. HPLC was performed with a Surveyor HPLC system equipped with a CTC Pal autosampler. The analytical column was a Zorbax Eclipse XDB-18 (2.1 mm×50 mm, particle size 5 μm) connected to a guard column. The eluent consisted of solvent A (aqueous formic acid 0.1%) and B (acetonitrile), a linear gradient from 25 to 90% of solvent B in 5 minutes was applied. The proportion of solvent B was then lowered to 25% in one minute and was allowed to equilibrate at this level for two minutes prior to the next injection. The volumetric flow-rate was 200 μL/min and the injection volume was 20 μL. The HPLC column outlet was coupled to a TSQ Quantum Ultra tandem triple quadrupole mass spectrometer (ThermoFinnigan, San José, Calif., USA). The transition of m/z 291 [M-H]^−→205 was used for 2-hydroxy-flutamide and m/z 316 [M-H]^−→273 was used for nilutamide (internal standard). The limit of quantification was 0.50 ng/ml in dog plasma. Calibration samples were prepared by spiking blank plasma samples with 100 μL of solutions of 2-hydroxy-flutamide at different concentrations. […]
# [2] = Plasma pharmacokinetics after local prostate implant in male beagle dogs (Example 3); assay type: in vivo, dog; conditions: for F (bioavailability): beagle dog; for F (bioavailability) / bioavailability: approximated with average i.v. clearance of Example 1; for half-life: read-out: t½ (converted); for bioavailability: iv, read-out: F (bioavailability)
# Description: The dog has been selected as the test model because of its proven suitability in this type of study. The study was performed in 12 male beagle dogs from Harlan Winkelmann GmbH, Germany.
# The sterile controlled release implant was composed of ceramic compounds and 2-hydroxyflutamide. Storage and handling instructions were given. The composition of the formulation of the low and high dose was 250 mg of 2-hydroxyflutamide +2.25 g calcium sulphate di-hydrat +5.0 g calcium sulphate hemi-hydrate and it was mixed with solution: 3.5 ml of water solution (with 1% acetic acid and 1% methyl cellulose).
# The final formulation work was done during sterile conditions by trained personal at the experimental day. The amount injected into each lobe of the androgen sensitive bulbourethral gland was about 2.0-3.0 ml for the low dose (250 mg) and 4.0-6.0 ml of the high dose (500 mg).
# The animals were fasted for at least 12 hours prior to the insertion procedure on Day 1. The implant drug delivery system was inserted locally into the prostate tissue, via rectum, through sterile needles during rectal ultrasound guidance. Each animal was under anesthesia during the insertion procedure.
# Blood samples for pharmacokinetic was collected as follows: On Day 1: Pre-insertion and 6 hours after insertion. Blood samples were sampled in the morning on Days 2, 3, 4, 5, 6 and 7. During the rest of the study blood samples were collected once a week.
# Blood samples of approximately 3 ml were drawn from the jugular vein. The blood was sampled into vacutainers containing EDTA as anticoagulant. The blood was placed in ice water until centrifugation (10 min, 1270 G, +4° C.). The plasma was transferred to Nunc cryotubes (Nunc, Denmark) and frozen at −18° C. or below and sent with dry ice to Swedish Veterinary Institute, Uppsala for analysis.
# The plasma pharmacokinetic variables were calculated using standard pharmacokinetic methods and are given for both implant doses of 250 mg and 500 mg in Tables 6 and 7. The bioavailability (F) was approximated by using the average value for clearance of 2-hydroyflutamide when it was given by an intravenous dose in the dog study presented in Example 1.
# [3] = male, Labrador, plasma, dog H2, 60 mg local prostate implant
# [4] = male, Labrador, plasma, dog H3, 30 mg local prostate implant
# [5] = male, Labrador, plasma, dog H4, 120 mg local prostate implant
# [6] = beagle dog plasma, local prostate implant 250 mg, individual animals
# [7] = beagle dog plasma, local prostate implant 500 mg, individual animals
# [8] = male, beagle, dog, plasma, 250 mg, beagle dogs, local prostate implant 250 mg, Mean of four animals
# [9] = male, beagle, dog, plasma, 500 mg, beagle dogs, local prostate implant 500 mg, Mean of four animals
smiles,measurement,setting,value
CC(C)(O)C(=O)Nc1ccc([N+](=O)[O-])c(C(F)(F)F)c1 [2-hydroxy-flutamide],concentration in the prostate tissue,"[1]; dogs, after three weeks of treatment with local implant",not possible to quantify
same,Cmax after intravenous dosing relative to Cmax after local implant dosing,"[1]; dogs, i.v. 25 mg versus local implant 120 mg",about 6 times
same,half-life,"[1]; male, Labrador, dog, plasma, 30 mg, dog H3, 30 mg local prostate implant, read-out: t1/2 (converted)",35 h
same,half-life,"[1]; male, Labrador, dog, plasma, 60 mg, dog H2, 60 mg local prostate implant, read-out: t1/2 (converted)",45 h
same,half-life,"[1]; male, Labrador, dog, plasma, 120 mg, dog H4, 120 mg local prostate implant, read-out: t1/2 (converted)",41 h
same,half-life,"[1]; male, Labrador, dog, plasma, 120 mg, given in the ceramic composition, three dosed dogs (30, 60, 120 mg), read-out: elimination half-life",35 to 45 h
same,bioavailability,"[1]; male, Labrador, dog, plasma, dogs, local prostate implant, on average, read-out: bioavailability from the intraprostate tissue (approximation)",> 100%
same,AUC,[1]; [3],4020 ng·h/mL
same,Cmax,[1]; [3],69.5 ng/mL
same,Tmax,[1]; [3],6 h
same,AUC,[1]; [4],990 ng·h/mL
same,Cmax,[1]; [4],26.4 ng/mL
same,Tmax,[1]; [4],6 h
same,AUC,[1]; [5],9410 ng·h/mL
same,Cmax,[1]; [5],142 ng/mL
same,Tmax,[1]; [5],24 h
same,AUC,[2]; [6],8701 ng·h/mL and 5446 ng·h/mL and 5921 ng·h/mL and 13237 ng·h/mL
same,Cmax,[2]; [6],97 ng/mL and 58 ng/mL and 85 ng/mL and 131 ng/mL
same,Tmax,[2]; [6],48 h
same,t½,[2]; [6],34 h and 39 h and 26 h
same,AUC,[2]; [7],13009 ng·h/mL and 13420 ng·h/mL and 11631 ng·h/mL
same,Cmax,[2]; [7],202 ng/mL and 133 ng/mL
same,Tmax,[2]; [7],48 h
same,t½,[2]; [7],57 h and 59 h and 34 h and 28 h
same,F (bioavailability),"[2]; local prostate implant 250 mg, individual animals",74% and 46% and 50% and 112%
same,F (bioavailability),"[2]; local prostate implant 500 mg, individual animals",86% and 110% and 113% and 98%
same,half-life,"[2]; male, beagle, dog, plasma, 250 mg, beagle dog plasma, local prostate implant 250 mg, individual animals",32 h
same,AUC,"[2]; male, beagle, dog, plasma, 250 mg, beagle dogs, local prostate implant 250 mg, Mean of four animals, read-out: AUC",8330 ng·h/mL
same,Cmax,"[2]; male, beagle, dog, plasma, 250 mg, beagle dogs, local prostate implant 250 mg, Mean of four animals, read-out: Cmax",93 ng/mL
same,Tmax,"[2]; male, beagle, dog, plasma, 250 mg, beagle dogs, local prostate implant 250 mg, Mean of four animals, read-out: tmax",17 h
same,half-life,[2]; [8],33 h
same,AUC,"[2]; male, beagle, dog, plasma, 500 mg, beagle dog plasma, local prostate implant 500 mg, individual animals, read-out: AUC",10200 ng·h/mL
same,Cmax,"[2]; male, beagle, dog, plasma, 500 mg, beagle dog plasma, local prostate implant 500 mg, individual animals, read-out: Cmax",102 ng/mL
same,AUC,"[2]; male, beagle, dog, plasma, 500 mg, beagle dogs, local prostate implant 500 mg, Mean of four animals, read-out: AUC",12100 ng·h/mL
same,Cmax,"[2]; male, beagle, dog, plasma, 500 mg, beagle dogs, local prostate implant 500 mg, Mean of four animals, read-out: Cmax",145 ng/mL
same,Tmax,"[2]; male, beagle, dog, plasma, 500 mg, beagle dogs, local prostate implant 500 mg, Mean of four animals, read-out: tmax",27 h
same,half-life,[2]; [9],45 h
same,bioavailability,[2]; [8],71%
same,bioavailability,[2]; [9],102%
